# Data from ChEMBL document CHEMBL3132769, “Fragment growing to retain or alter the selectivity of anchored kinase hinge-binding fragments” (Medchemcomm, 2014).
# Columns and labels:
# [1] = target: T1, Serine/threonine-protein kinase Nek2 (Homo sapiens) (UniProt P51955); assay: Inhibition of human full length NEK2 expressed in baculovirus assessed as substrate phosphorylation using fluorescence-labelled peptides as substrate at 420 uM after 90 mins by microfluidic peptide phosphorylation assay
# T1 sequence (whole entry): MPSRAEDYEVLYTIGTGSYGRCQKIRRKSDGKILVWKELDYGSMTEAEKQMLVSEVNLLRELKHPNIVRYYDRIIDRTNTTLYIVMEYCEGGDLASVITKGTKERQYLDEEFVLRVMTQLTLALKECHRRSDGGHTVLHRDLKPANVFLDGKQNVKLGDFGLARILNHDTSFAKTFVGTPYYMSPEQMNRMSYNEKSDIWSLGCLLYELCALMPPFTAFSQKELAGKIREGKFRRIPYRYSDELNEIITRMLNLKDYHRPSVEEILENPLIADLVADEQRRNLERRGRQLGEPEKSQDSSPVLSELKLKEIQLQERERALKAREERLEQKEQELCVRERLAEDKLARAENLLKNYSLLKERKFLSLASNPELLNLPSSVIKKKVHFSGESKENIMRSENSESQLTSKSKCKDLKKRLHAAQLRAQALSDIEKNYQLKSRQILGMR
# [2] = target: Casein kinase I isoform delta (Homo sapiens) (UniProt P48730); assay: Inhibition of human CK1D catalytic domain expressed in Escherichia coli cell assessed as substrate phosphorylation using fluorescence-labelled peptides as substrate at 420 uM after 90 mins by microfluidic peptide phosphorylation assay
# [3] = target: T1, Serine/threonine-protein kinase Nek2 (Homo sapiens); assay: Inhibition of human full length NEK2 expressed in baculovirus assessed as substrate phosphorylation using fluorescence-labelled peptides as substrate at […] after 90 mins by microfluidic peptide phosphorylation assay
# [4] = target: T2, Serine/threonine-protein kinase Sgk2 (Homo sapiens) (UniProt Q9HBY8); assay: Inhibition of human full length SGK2 expressed in baculovirus assessed as substrate phosphorylation using fluorescence-labelled peptides as substrate at 0.1 uM after 90 mins by microfluidic peptide phosphorylation assay
# T2 sequence (whole entry): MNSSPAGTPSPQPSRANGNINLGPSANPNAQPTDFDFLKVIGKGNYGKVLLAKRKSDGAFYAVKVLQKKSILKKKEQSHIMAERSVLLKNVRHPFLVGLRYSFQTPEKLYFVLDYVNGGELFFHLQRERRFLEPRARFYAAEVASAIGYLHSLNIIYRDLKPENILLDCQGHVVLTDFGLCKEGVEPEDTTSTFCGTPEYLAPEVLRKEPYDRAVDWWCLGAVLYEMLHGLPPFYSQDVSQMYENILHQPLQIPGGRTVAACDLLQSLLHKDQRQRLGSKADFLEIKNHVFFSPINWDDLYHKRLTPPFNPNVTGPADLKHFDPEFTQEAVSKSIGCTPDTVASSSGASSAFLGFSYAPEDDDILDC
# [5] = target: Rho-associated protein kinase 2 (Homo sapiens) (UniProt O75116); assay: Inhibition of human ROCK2 catalytic domain expressed in baculovirus assessed as substrate phosphorylation using fluorescence-labelled peptides as substrate at 9 uM after 90 mins by microfluidic peptide phosphorylation assay
# [6] = target: Serine/threonine-protein kinase MARK1 (Homo sapiens) (UniProt Q9P0L2); assay: Inhibition of human full length MARK1 expressed in baculovirus assessed as substrate phosphorylation using fluorescence-labelled peptides as substrate at 70 uM after 90 mins by microfluidic peptide phosphorylation assay
# [7] = target: T3, Serine/threonine-protein kinase BRSK1 (Homo sapiens) (UniProt Q8TDC3); conditions: 1000 uM
# T3 sequence (whole entry): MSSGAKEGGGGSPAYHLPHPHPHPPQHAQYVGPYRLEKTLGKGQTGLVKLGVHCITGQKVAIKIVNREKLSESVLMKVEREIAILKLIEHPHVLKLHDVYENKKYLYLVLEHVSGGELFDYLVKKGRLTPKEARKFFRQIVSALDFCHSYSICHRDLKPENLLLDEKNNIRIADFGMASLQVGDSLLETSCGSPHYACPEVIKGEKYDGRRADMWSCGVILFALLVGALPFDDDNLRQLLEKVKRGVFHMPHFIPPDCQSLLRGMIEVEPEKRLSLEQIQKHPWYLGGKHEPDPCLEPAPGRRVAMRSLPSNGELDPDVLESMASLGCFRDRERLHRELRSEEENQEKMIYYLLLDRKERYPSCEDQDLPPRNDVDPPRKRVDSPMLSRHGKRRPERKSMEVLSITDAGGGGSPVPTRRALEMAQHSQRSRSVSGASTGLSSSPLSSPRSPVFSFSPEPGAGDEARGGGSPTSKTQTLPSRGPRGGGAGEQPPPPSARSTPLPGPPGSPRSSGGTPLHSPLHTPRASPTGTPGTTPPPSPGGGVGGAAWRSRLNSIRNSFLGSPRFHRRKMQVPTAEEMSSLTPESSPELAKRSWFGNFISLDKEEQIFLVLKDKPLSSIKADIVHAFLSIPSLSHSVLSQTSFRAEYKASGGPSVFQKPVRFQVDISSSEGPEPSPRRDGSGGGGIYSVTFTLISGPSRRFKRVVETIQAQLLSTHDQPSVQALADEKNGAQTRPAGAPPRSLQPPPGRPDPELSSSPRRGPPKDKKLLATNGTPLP
# Description: Inhibition of human full length BRSK1 expressed in baculovirus assessed as substrate phosphorylation using fluorescence-labelled peptides as substrate at 1000 uM after 90 mins by microfluidic peptide phosphorylation assay
# [8] = target: Casein kinase I isoform delta (Homo sapiens) (UniProt P48730); assay: Inhibition of human CK1D catalytic domain expressed in Escherichia coli cell assessed as substrate phosphorylation using fluorescence-labelled peptides as substrate at 1000 uM after 90 mins by microfluidic peptide phosphorylation assay
# [9] = target: Tyrosine-protein kinase Lyn (Homo sapiens) (UniProt P07948); assay: Inhibition of human full length LYN expressed in baculovirus assessed as substrate phosphorylation using fluorescence-labelled peptides as substrate at 2 uM after 90 mins by microfluidic peptide phosphorylation assay
# Sequence of Tyrosine-protein kinase Lyn (Homo sapiens) (P07948 2-512 limits assumed): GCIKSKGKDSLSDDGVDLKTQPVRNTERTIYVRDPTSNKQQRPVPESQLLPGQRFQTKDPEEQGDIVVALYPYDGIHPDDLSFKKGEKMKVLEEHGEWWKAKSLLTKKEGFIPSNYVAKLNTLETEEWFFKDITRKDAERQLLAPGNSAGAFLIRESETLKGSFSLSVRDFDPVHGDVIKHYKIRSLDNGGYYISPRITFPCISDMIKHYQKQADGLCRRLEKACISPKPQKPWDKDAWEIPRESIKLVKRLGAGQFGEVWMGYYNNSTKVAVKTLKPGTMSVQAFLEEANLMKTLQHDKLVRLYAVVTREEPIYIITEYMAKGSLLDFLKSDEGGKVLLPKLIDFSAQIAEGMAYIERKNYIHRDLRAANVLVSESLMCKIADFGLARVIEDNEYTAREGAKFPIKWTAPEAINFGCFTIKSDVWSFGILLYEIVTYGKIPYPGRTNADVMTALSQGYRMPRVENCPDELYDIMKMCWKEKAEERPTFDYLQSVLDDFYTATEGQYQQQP
# Sequence of Casein kinase I isoform delta (Homo sapiens) (P48730 whole entry, looked up, the tested form may be a part, canonical isoform): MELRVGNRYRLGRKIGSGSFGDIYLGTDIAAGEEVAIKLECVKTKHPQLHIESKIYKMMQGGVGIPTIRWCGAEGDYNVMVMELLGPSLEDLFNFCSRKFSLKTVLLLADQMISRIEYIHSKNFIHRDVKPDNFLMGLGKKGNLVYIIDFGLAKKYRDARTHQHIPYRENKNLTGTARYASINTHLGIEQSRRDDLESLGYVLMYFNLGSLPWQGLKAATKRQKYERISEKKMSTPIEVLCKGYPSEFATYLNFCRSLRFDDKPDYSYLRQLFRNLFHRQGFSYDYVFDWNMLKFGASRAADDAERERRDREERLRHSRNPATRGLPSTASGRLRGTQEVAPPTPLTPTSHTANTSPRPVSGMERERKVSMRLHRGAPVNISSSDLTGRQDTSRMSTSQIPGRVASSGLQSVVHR
# Sequence of Rho-associated protein kinase 2 (Homo sapiens) (O75116 whole entry, looked up, the tested form may be a part): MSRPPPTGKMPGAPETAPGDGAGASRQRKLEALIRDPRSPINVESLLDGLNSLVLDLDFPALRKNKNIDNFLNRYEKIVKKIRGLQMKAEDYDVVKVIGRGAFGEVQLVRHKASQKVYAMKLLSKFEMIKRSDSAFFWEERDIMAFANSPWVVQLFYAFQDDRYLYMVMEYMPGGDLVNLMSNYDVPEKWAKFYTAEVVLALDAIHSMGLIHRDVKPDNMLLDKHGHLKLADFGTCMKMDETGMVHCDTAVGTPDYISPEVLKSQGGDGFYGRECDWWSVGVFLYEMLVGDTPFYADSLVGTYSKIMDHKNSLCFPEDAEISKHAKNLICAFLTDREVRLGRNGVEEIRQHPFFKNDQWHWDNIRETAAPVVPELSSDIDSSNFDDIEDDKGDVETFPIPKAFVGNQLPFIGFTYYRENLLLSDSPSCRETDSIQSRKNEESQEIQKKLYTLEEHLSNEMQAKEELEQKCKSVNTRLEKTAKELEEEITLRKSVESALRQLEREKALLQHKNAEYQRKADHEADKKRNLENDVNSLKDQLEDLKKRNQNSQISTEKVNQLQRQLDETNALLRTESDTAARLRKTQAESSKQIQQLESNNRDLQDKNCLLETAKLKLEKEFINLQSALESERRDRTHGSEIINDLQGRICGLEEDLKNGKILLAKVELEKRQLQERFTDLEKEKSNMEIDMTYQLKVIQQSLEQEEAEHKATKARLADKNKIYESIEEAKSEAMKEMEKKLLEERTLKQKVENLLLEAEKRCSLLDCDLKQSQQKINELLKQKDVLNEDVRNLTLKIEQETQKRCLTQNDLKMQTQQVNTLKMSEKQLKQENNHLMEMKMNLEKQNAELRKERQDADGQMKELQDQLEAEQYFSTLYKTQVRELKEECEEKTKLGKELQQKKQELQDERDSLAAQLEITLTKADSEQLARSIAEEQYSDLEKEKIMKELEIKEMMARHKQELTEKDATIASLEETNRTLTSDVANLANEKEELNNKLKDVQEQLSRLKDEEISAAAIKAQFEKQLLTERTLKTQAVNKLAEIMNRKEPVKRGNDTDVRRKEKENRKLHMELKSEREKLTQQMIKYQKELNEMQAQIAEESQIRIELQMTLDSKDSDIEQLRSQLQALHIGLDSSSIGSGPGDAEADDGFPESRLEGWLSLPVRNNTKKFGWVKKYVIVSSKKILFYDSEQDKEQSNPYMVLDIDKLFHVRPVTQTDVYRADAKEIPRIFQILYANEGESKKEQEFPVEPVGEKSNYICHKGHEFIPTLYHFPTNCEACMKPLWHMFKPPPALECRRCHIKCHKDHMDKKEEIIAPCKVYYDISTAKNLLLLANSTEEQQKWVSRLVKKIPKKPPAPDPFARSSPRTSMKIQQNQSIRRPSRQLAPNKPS
# Sequence of Serine/threonine-protein kinase MARK1 (Homo sapiens) (Q9P0L2 whole entry, looked up): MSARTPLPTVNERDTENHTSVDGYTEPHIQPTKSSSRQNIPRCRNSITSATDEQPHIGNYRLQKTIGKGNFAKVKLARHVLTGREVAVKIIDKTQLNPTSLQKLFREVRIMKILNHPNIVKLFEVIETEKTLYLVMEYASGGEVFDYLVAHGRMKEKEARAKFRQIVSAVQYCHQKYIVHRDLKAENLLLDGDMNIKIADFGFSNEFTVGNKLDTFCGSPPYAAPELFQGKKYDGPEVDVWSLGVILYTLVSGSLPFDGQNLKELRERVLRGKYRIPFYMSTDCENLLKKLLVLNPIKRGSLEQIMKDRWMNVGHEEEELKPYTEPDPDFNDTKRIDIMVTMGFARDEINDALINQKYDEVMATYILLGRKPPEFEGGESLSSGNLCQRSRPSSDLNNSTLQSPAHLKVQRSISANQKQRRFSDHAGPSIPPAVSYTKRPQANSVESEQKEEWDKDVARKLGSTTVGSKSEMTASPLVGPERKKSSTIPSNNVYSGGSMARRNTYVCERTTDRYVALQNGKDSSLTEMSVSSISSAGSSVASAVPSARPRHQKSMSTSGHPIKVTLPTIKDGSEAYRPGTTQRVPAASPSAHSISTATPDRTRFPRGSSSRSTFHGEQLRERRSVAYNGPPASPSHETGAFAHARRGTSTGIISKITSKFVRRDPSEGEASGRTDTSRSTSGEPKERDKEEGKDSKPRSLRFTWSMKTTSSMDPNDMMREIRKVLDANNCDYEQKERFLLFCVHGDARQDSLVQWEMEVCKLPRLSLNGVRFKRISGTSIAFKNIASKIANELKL
structure (smiles),measurement,setting,value
c1nc(N2CCOCC2)c2nc[nH]c2n1,inhibition,[1],27%
same,inhibition,[2],81.5%
COC(=O)c1cnc(Nc2cnc(C#N)cn2)cc1NCC1CCNCC1,inhibition,[3],0.5%
C[C@H](CN(C)C)Oc1nc(Nc2cc3cccc(Cl)c3cn2)cnc1C#N,inhibition,[4],5.5%
NCC1CN(c2ncnc3[nH]c4cnccc4c23)CCO1 (centres undefined),inhibition,[5],53%
CNCc1ccc(-c2ncnc3[nH]cnc23)cc1,inhibition,[6],52%
c1cnc2[nH]ccc2c1,inhibition,[7],22%
same,inhibition,[8],94.5%
NC1CCN(c2ncnc3[nH]ccc23)CC1,inhibition,[9],0.5%
